Assay in all cases: inhibition of tumour cell growth, NCI panel, 48 h
In experiment [1] the test system is OVCAR-3 ovarian.
Experiment [2] deals with RXF 393 renal.
Experiment [3] concerns NCI-H226 lung.
The subject of experiment [4] is 786-0 renal.
Experiment [5] has as its system SNB-75 CNS.
The subject of experiment [6] is SF-268 CNS.
Experiment [7] concerns HCT-116 colon.
The subject of experiment [8] is M14 melanoma.
In experiment [9] the test system is NCI-H23 lung.
Experiment [10] has as its system EKVX NSCLC.
Experiment [11] has as its system SF-539 CNS.
Experiment [12] relates to OVCAR-5 ovarian.
Experiment [13] deals with SNB-19 CNS.
For experiment [14], the system named is HOP-62 NSCLC.
The test system of experiment [15] is CAKI-1 renal.
Experiment [16] relates to HCC-2998 colon.
The subject of experiment [17] is T-47D breast.
Experiment [18] has as its system MDA-MB-435.
Experiment [19] has as its system HL-60(TB) leukemia.

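Where inhibition never reached the appropriate level, the endpoint shown equals the highest concentration tested. Otherwise, values were interpolated linearly from a five-concentration, 48-hour dose response in 96-well plates. At the TGI there is no net growth.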

Take `CCOC(=O)c1ncn2c1[nH]c(=O)c1ccccc12`: the TGI in experiment [1], in experiment [2], in [3], in experiment [4], in experiment [5] and in experiment [6] was over 100 µM each time. Also, the TGI in experiment [7], in experiment [8], in experiment [9], in experiment [10], in [11] and in experiment [12] was over 100 µM in each case. In experiment [13], this compound showed a TGI of over 100 µM.

Regarding `Cc1ccc(S(=O)(=O)C(C#N)c2nc3ccccc3nc2N2CCOCC2)cc1` (stereo not drawn), the TGI in experiment [1] is 91.6 µM; in experiment [14] it was 44.6 µM; in experiment [3], over 100 µM; in experiment [4] it was over 100 µM; in experiment [5] it was over 100 µM; in experiment [15], 65 µM. Besides, the TGI in experiment [6] is 71.1 µM; in experiment [7] it was 38.4 µM; in experiment [8], over 100 µM; in experiment [16], 28.5 µM; in [9], 55.1 µM; in experiment [10], over 100 µM. For the same compound, the TGI in [11] was over 100 µM; in experiment [12] it was over 100 µM; in experiment [13] it was 95.6 µM.

For the compound `COc1ccc(C(=O)/C=C/c2ccc(OCC#N)cc2)cc1OC`, the TGI in experiment [1] amounted to 49.1 µM; in experiment [14] it was 36.4 µM; in experiment [2], 33.8 µM; in [3], 37.9 µM; in experiment [4], 86.7 µM; in experiment [5], 22.9 µM. Further, the TGI in experiment [15] was found to be 37.5 µM; in experiment [17], 28.8 µM; in experiment [6], 85.3 µM; in experiment [7] it was 17.2 µM; in experiment [8] it was 37.3 µM; in experiment [18], 44.7 µM. Also, the TGI in [16] worked out at 33.3 µM; in experiment [9], 54.5 µM; in experiment [10], 36 µM; in experiment [11] it was 36.9 µM; in experiment [13] it was 29.9 µM.

As for `Cc1ccc(SC2C(C)(C)N(C(C)C)P2(=O)N(C(C)C)C(C)C)cc1` (stereo not drawn), the TGI in experiment [1], in experiment [14], in experiment [3], in [4], in experiment [5] and in [15] was over 100 µM in each case. The TGI in experiment [6] was over 100 µM; in experiment [7] it was over 63.4 µM; in experiment [8], over 100 µM; in experiment [19], 41.9 µM; in experiment [16], over 100 µM; in experiment [9] it was over 100 µM. In addition, the TGI in [10] is 97.3 µM; in experiment [11], over 100 µM; in experiment [12], over 100 µM; in experiment [13] it was over 100 µM.

As for `COC(=O)NN/C=C(\C=Nc1ccccc1)[N+](=O)[O-]`, the TGI in [1], in experiment [14], in experiment [2], in experiment [4], in experiment [6] and in experiment [7] was over 100 µM throughout. Further, the TGI in experiment [8], in experiment [19], in experiment [16], in [9], in experiment [10] and in experiment [13] was over 100 µM each time.

For the compound `O=C(Nc1sccc1S(=O)(=O)c1ccc(Cl)cc1)c1ccc(Cl)cc1Cl`, the TGI in [1], in experiment [14], in [2], in experiment [3], in [4] and in experiment [5] was over 100 µM throughout. Also, the TGI in [15], in [17], in experiment [6], in experiment [7], in experiment [8] and in [19] was over 100 µM in each case. Besides, the TGI in [18], in [9], in [10], in experiment [11], in [12] and in experiment [13] was over 100 µM each time.

With `NC(=O)c1ccccc1NC(=O)C(=O)Nc1n[nH]c(N)n1`, the TGI in experiment [1], in experiment [14], in experiment [2], in experiment [3], in [4] and in [5] was over 100 µM throughout. Also, the TGI in experiment [15], in [7], in experiment [8], in experiment [19], in experiment [16] and in [9] was over 100 µM each time. Further, the TGI in [10], in [11], in experiment [12] and in experiment [13] was over 100 µM each time.

`O=C(Cc1nc2ccc(C(=O)c3ccccc3)cc2[nH]c1=O)C(=O)Nc1ccc(C(F)(F)F)cc1[N+](=O)[O-]`: the TGI in [1], in experiment [14], in experiment [3], in experiment [4], in experiment [5] and in [15] was over 100 µM in each case. Besides, the TGI in experiment [6], in experiment [7], in [8], in experiment [19], in experiment [16] and in experiment [9] was over 100 µM each time. For the same compound, the TGI in [10], in [11], in experiment [12] and in experiment [13] was over 100 µM in each case.

With `OC1=CN=C(C2CC2)Oc2ccccc21`, the TGI in experiment [1], in [14], in experiment [2], in experiment [3], in experiment [4] and in [5] was over 100 µM throughout. The TGI in experiment [6], in experiment [7], in experiment [8], in [19], in experiment [16] and in experiment [9] was over 100 µM in each case. The TGI in [10], in experiment [11] and in experiment [13] was over 100 µM each time.

These data come from PubChem BioAssay (NCI).
